Test results reported in patent US9963461B2, “Phillygenin ibuprofen ester, preparation method therefor, and application thereof” (priority 2014, dated 2018).
Marks after values point to notes of the source that are not given here.

Tests used:
[1] = tested on: Coxsackie virus A16 (CoxA16); assay: Impact of the drugs on the virus-induced cytopathy (MTT); assay type: cell-based; settings: CoxA16 100 TCID50, Vero cells, about the maximal non-cytotoxic concentration, 72 hours
[2] = tested on: coxsackie virus B3 (CVB3); assay: as above; assay type: cell-based; settings: CVB3 100 TCID50, Vero cells, about the maximal non-cytotoxic concentration, 72 hours
[3] = tested on: sweat secretion of rat paw part; assay: Sweat secretion of rat paw part (coloring method); assay type: in vivo, Wistar rats; settings: 300.0 mg/kg intragastric; for Animal number of sweat points of level +: + = sweat area below about 10%; for Animal number of sweat points of level ++: ++ = sweat area about 11-40%; for Animal number of sweat points of level +++: +++ = sweat area about 41-70%; for Animal number of sweat points of level ++++: ++++ = sweat area over 71%; for Animal number of sweat points of level −: − = no sweat point
Text: This test was designed to observe the change of sweat secretion based on the mechanism that sweat gland is distributed on the rat paw pads, and iodine and starch can have purple reaction when encountered with sweat. In the test, 350 Wistar rats were selected, with equal male and female number, weighing 120-150 g. […] The rats were placed in a self-made rat fixation bag, with the double hind limbs exposed. The dirts on the right paw was gently scrubbed clean with the cotton swab dipped with anhydrous ethanol. Besides that subcutaneous injection was used for the pilocarpine solution, intragastric administration was used for all the other groups. […] When the test was complete, statistical process was carried out according to the rank-sum test with two-sample comparison, in order to compare the difference between the groups.

[4] = tested on: sweat gland epithelial cells at the rat toe part; assay: Sweat secretion of rat paw part (tissue morphology observation method); assay type: in vivo, Wistar rats; settings: rat toe part; 300.0 mg/kg intragastric
Text: This test was based on the mechanism that when rat sweat gland is excited, in addition to sweat secretion increase, the morphology of sweat gland epithelial cell is also changed. The number increase and expansion of empty cells of the sweat gland epithelial cells can be seen under the optical microscope. Such enlarged vacuole presents mitochondrial in sweat gland epithelial cells swelling, rupture, fusion and secretory vesicle enlargement under the electron microscope, and through the morphological observation of the sweat gland epithelial cell at the rat paw part, the secretory activity of the sweat gland can be known. In the test, 70 Wistar rats were selected, with equal male and female number, weighing 120-160 g. […] Besides that subcutaneous injection was used for the pilocarpine solution, intragastric administration was used for all the other groups.

[5] = tested on: mice pain induced by acetic acid; assay: Analgesic test, mice writhing induced by acetic acid; assay type: in vivo, Kunming mice; settings: 300 mg/kg intragastric; within 15 min after 0.7% acetic acid
Procedure: 72 Kunming mice were randomly divided into 6 groups, with 12 mice for each group. (1) the blank normal control group (i.e. saline group, […]); (2) positive drug aspirin group (200 mg/kg); (3) ibuprofen group (300 mg/kg); (4) high dose group of phillygenin ibuprofen ester (300 mg/kg); (5) medium dose group of phillygenin ibuprofen ester (150 mg/kg); (6) low dose group of phillygenin ibuprofen ester (75 mg/kg). […] The number of mice writhings within 15 min after administration was recorded. The number of writhings was taken as the evaluation index to evaluate the analgesic effect.

[6] = after coating B liquid for 1 minute
[7] = after coating B liquid for 5 minutes
[8] = after coating B liquid for 10 minutes
[9] = after coating B liquid for 15 minutes (Table 2-4)
[10] = after coating B liquid for 15 minutes (Table 2-5)

Structure (SMILES): CC(C)Cc1ccc(C(C)C(=O)O)cc1 (stereo not drawn) [Ibuprofen]
- antiviral effective rate (ER %) [1]: 50.04%
- antiviral effective rate (ER %) [2]: 50.89%
- Animal number of sweat points of level + [3, 6]: 1
- Animal number of sweat points of level ++ [3, 6]: 3
- Animal number of sweat points of level +++ [3, 6]: 1
- Animal number of sweat points of level ++++ [3, 6]: 5
- Animal number of sweat points of level − [3, 6]: 0
- Animal number of sweat points of level + [3, 7]: 2
- Animal number of sweat points of level ++ [3, 7]: 1
- Animal number of sweat points of level +++ [3, 7]: 2
- Animal number of sweat points of level ++++ [3, 7]: 5
- Animal number of sweat points of level − [3, 7]: 0
- Animal number of sweat points of level + [3, 8]: 1
- Animal number of sweat points of level ++ [3, 8]: 2
- Animal number of sweat points of level +++ [3, 8]: 2
- Animal number of sweat points of level ++++ [3, 8]: 5
- Animal number of sweat points of level − [3, 8]: 0
- Animal number of sweat points of level + [3, 9]: 1
- Animal number of sweat points of level ++ [3, 9]: 2
- Animal number of sweat points of level +++ [3, 9]: 2
- Animal number of sweat points of level ++++ [3, 9]: 5
- Animal number of sweat points of level − [3, 9]: 0
- Animal number of sweat points of level + [3, 10]: 1
- Animal number of sweat points of level ++ [3, 10]: 2
- Animal number of sweat points of level +++ [3, 10]: 2
- Animal number of sweat points of level ++++ [3, 10]: 5
- Animal number of sweat points of level − [3, 10]: 0
- Number of sweat glands of vacuole [4]: 57
- Void fraction (%) [4]: 27.40*** %
- Writhing times [5]: 9.7*
